Key:
p53 = assay: inhibition of p53
caspase = assay: inhibition of caspase
[1] = test system: 32D cl 3 mouse hematopoietic progenitor cells; assay: radioprotection, survival curves of irradiated 32D cl 3 cells; format: cell-based; settings: for radioprotective effect on cells: 10 μM, compound added before or after radiation; for Do (Gy): compound at 10 μM, ionizing radiation survival curve
Experimental: To measure the level of radioprotection for compounds in Table 3, a DMSO solution is made for each compound and added to 32D cl 3 cells, a mouse hematopoietic progenitor cell line at a final concentration of 10 μM. The terms “radioprotection” and “radioprotective” refer to the protective effect on normal cells exerted by the captioned compounds when such cells are exposed to ionizing radiation.
FIGS. 2-4 show the survival curves for 32D cl 3 cells in the presence of different compounds of the invention. A strong radioprotective effect is seen in cultures that include the captioned compounds. FIGS. 2 and 3 show cell survival curves when the captioned compounds were added to cell cultures before exposure to radiation. The survival curves in FIG. 4, however, show the radioprotective effect of the inventive compounds when delivered to cell cultures after exposure to ionizing radiation. […] Moreover, the extent of radioprotection in a culture that is pretreated with an inventive compound is similar to that observed in a culture in which such compound is added after exposure to radiation.
The extent of radioprotection afforded by the captioned compounds is determined by measuring the fraction of viable cells in a culture containing the captioned radioprotective agent. The fraction of viable cells is determined by back-extrapolating the linear portion of the shoulder width in a survival curve to the Y-axis.

E. coli FabD = target: T1, E. coli FabD (Escherichia coli, UniProt P0AAI9); assay: in vitro FabD (MCAT) enzyme inhibition assay, HPLC of CoA peak; format: biochemical; settings: protocol of Molnos et al.
T1 construct: made in house; host or cells: E. coli
T1 sequence (P0AAI9 whole entry): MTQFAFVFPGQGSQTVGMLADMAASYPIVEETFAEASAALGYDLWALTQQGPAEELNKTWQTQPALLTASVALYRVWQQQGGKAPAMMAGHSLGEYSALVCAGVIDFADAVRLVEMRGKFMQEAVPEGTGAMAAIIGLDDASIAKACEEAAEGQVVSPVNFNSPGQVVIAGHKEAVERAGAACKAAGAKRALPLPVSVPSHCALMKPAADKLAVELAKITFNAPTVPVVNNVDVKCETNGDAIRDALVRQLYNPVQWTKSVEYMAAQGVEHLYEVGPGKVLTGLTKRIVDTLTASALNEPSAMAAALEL
Experimental: Compounds synthesized using MCR, as described above, were tested for their ability to inhibit FabD using an in vitro inhibition assay. Briefly, FabD and holo-ACP was cloned, and expressed in E. coli according to the protocol of Molnos et al., Anal. Biochem. 2003, 319, 171. The proteins were purified using the ACTA protein purification system. The inhibition study was carried out according to the protocol of Miossec et al., American Society for Microbiology 104th General Meeting, New Orleans, 2004 (LA. Abstract: K-001), and was performed in a final volume of 100 μl in 96-well microtiter plates (IEA/RIA black, flat bottom, half area plates, Costar).
Purified E. coli FabD was diluted in the enzyme dilution buffer (100 mM phosphate buffer pH 7, DTT 1.5 mM, BSA 1 mg/ml [30 ml of Assay buffer+30 mg of BSA]) at ten times the final concentration (0.75 ng/ml). Malonyl-CoA (10 mM, Sigma) was diluted to ten times the final concentration (25 uM) with distilled H2O. Holo-ACP was prepared to 874 μM. […] The reaction mixture was analyzed by anion exchange, high performance liquid chromatography, using a PL-SAX8u 4.6 mm×150 mm column (Polymer Laboratories) and UV-detection (CoA and malonyl-CoA are detected at 254 nm). The percent inhibition of FabD was calculated by integrating the area of the CoA peak in the chromatogram. […]

Row | inhibition of caspase (caspase) | Compound | inhibition of p53 (p53) | radioprotective effect on cells [1] | Do (Gy) [1] | ability to inhibit FabD (E. coli FabD)
1 | inhibit caspase | COC(=O)CNC(=O)C(NC1CCSC1=O)C1CC1 (racemic) [BEB 69] | p53 inhibitors |  |  | 
2 | inhibit caspase | Cc1cn(CC(NC2CCSC2=O)C(=O)NC(C)(C)C)c(=O)[nH]c1=O (racemic) [SK7] |  | potent radioprotective effect | 1.1 ± 0.1 Gy | 
3 |  | O=C(NCc1ccccc1)[C@@H]1CSC(=O)[C@H](Cc2ccccc2)N1 (single isomer, unassigned) [BEB 75-1] |  | potent radioprotective effect | 0.9 ± 0.1 Gy | 
4 |  | Clc1ccc(-c2ncn(CC3CC3)c2-c2c[nH]c3ccccc23)cc1 [BEB 55] | inhibitors of p53 |  | 1.1 ± 0.1 Gy | 
5 |  | Clc1cccc(Cc2ncn(CC3CC3)c2-c2c[nH]c3ccccc23)c1 [BEB 59] | inhibitors of p53 |  | 1.1 ± 0.1 Gy | 
6 |  | CC(C)=CCC[C@H](C)CC(NC1CCSC1=O)C(=O)NC(c1ccccc1)c1ccccc1 (stereo partly drawn) [Compound 13a, (S)-4,8-Dimethyl-2-(2-oxo-tetrahydro-thiophen-3-ylamino)-non-7-enoic acid benzhydryl-amide] |  |  |  | potent inhibitors
7 |  | Cc1cc(C)c(NC(=O)C(NC2CCSC2=O)C(C)C)c(C)c1 (stereo not shown) [Compound 15a, 3-Methyl-2-(2-oxo-tetrahydro-thiophen-3-ylamino)-N-(2,4,6-trimethyl-phenyl)-butyramide] |  |  |  | potent inhibitors

From patent US20100022520A1, “MALONYL-COA ACETYLTRANSFERASE INHIBITORS AGAINST ANTIBIOTIC RESISTANT BACTERTIA” (University of Pittsburgh -- Of the Commonwealth System of …, priority 2008, published 2010)
